The values that follow come from US20230235316A1, “MODEL FOR INSULIN RESISTANCE” (CHILDREN'S HOSPITAL MEDICAL CENTER, priority 2020, published 2023).

What all share (type): cell-based, human
Experiment [1] relates to fatty liver HLO. Briefly: Drug screening in fatty liver HLO: fat accumulation. The following applies: HLO treated with fatty acids for 6 days; drug exposure 48 hours. The protocol:
(§1) HLO were treated with fatty acids for 6 days to induce a fatty liver phenotype. Then, candidate drugs were exposed to the sHLO for 48 hours.

Experiment [2] relates to fatty liver HLO. Briefly: Drug screening in fatty liver HLO: inflammatory gene expression. The following applies: HLO treated with fatty acids for 6 days; drug exposure 48 hours. The protocol: as §1
Experiment [3] has as its system AKT phosphorylation in HLOs. The experiment can be described thus: AKT phosphorylation in HLOs after insulin (Western blot). The following applies: HLOs insulin-starved 24 hours; insulin 0, 10 and 100 ng/mL for 20 minutes. The protocol: (§2) Insulin responsiveness of HLOs was analyzed using Western blotting and qPCR. The prepared HLOs were cultured under insulin starvation for 24 hours and then exposed to insulin.
To analyze phosphorylation of AKT activated downstream of insulin signaling. HLOs were treated with insulin at 0 ng/mL, 10 ng/mL and 100 ng/mL for 20 minutes, and then proteins were extracted for Western blot.
In general terms: Immunoblotting shows a protein as a band on a membrane.

Experiment [4] deals with HLOs. Briefly: qPCR of gluconeogenesis and lipogenesis regulator genes in insulin-treated HLOs. The following applies: HLOs insulin-starved 24 hours, insulin 100 ng/mL for 8 hours. The protocol: as §2
To analyze insulin responsiveness of gluconeogenesis and lipogenesis regulator genes in HLOs, they were treated with insulin at 100 ng/mL for 8 hours, and then RNA was extracted for qPCR. In the insulin-treated HLOs, gluconeogenesis regulatory gene expression (FOXO1, CREB1, TFE1, PCK1) was suppressed by insulin stimulation (FIG. 4B). Conversely, lipogenesis regulatory gene expression (SREBP, FASN, ACLY, ACC) was induced by insulin stimulation (FIG. 4C).

Experiment [5] relates to PCK1 reporter HLOs. The experiment can be described thus: PCK1 reporter (mScarlet fluorescence / luciferase) HLOs. An excerpt: To visualize and quantify HLO insulin responsiveness, iPSCs were genetically edited using the CRISPR/Cas9 system to insert a reporter construct comprising mScarlet (fluorescence) and luciferase (luminescence) genes downstream of the gluconeogenesis regulatory gene PCK1, at the 3′ end in exon 10 (FIG. 5A). FIG. 5A also depicts a schematic of the reporter function. […] When gluconeogenesis is suppressed by exposure to insulin, the expression of mScarlet and luciferase also decreases in correlation with the downregulation of PCK1. […] However, it is envisioned that other reporter constructs, such as those using alternative reporters, can be used. Furthermore, alternative insulin pathway regulatory genes are depicted in FIG. 3C to be used in lieu of PCK1.
Human iPSCs were gene edited to insert the fluorescence and luminescence reporter construct to the 3′ end of PCK1. […] These gene edited iPSCs were subsequently differentiated into HLOs. […] Subsequently, 100 ng/mL of insulin was applied for 3 hours, and fluorescence and luciferase activity were measured. […] FIGS. 6C-D depicts the detection of PCK1-luciferase luminescence as measured by in vitro imaging.
The effect of insulin concentration was tested. PCK1-luciferase HLOs were starved of insulin for 24 hours and then treated with 0 nM, 10 nM, 100 nM, or 1000 nM of insulin for 1 hour for luciferase imaging.
The effect of insulin treatment time was tested. Insulin starved HLOs were treated with 100 nM of insulin for 1, 2, or 3 hours (with no insulin control).

Experiment [6] relates to sHLO. Briefly: Insulin responsiveness in sHLO (Western blot, gene expression, PCK1, glucose production). The protocol:
Insulin responsiveness in the sHLO was examined. To detect insulin responsiveness, insulin starvation of sHLO and HLO controls was performed for 24 hours, followed by insulin stimulation.
Insulin signal analysis by Western blot was performed by treating with 100 nM insulin for 20 minutes. […] Insulin responsiveness of PCK1, CREB 1, and FOXO1 was not suppressed in sHLO (FIGS. 7J-K). […] Furthermore, glucose production was not inhibited after insulin stimulation in sHLO (FIG. 7L).

Experiment [7] relates to HLO. The experiment can be described thus: Fatty acid induction of steatohepatitis phenotype in HLOs. The note with it: 300 µM oleic acid for 72 hours. An excerpt:
Fatty acid treatment induces a steatohepatitis phenotype in HLOs. […] DGAT½, which catalyzes the formation of triglycerides from diacylglycerol and acyl-CoA, was increased in sHLO relative to normal HLOs (FIG. 7D).

“Also recorded” adds a separate entry of the source.

With `CN(C)C(=N)N=C(N)N` [metformin], in experiment [1], the fat accumulation entry is recorded as “improvement”. For the same compound, the “inflammatory gene expression (TNFa, NFKB1, NFKB2) / inflammatory response” value in experiment [2] is reported as “limited improvement”.
As to insulin, the AKT phosphorylation result in experiment [3] is “induces AKT phosphorylation”. Besides, the “gluconeogenesis regulatory gene expression (FOXO1, CREB1, TFE1, PCK1)” value in experiment [4] is “suppression; also recorded: suppressed”. The “lipogenesis regulatory gene expression (SREBP, FASN, ACLY, ACC)” value in experiment [4] was “induction; also recorded: induced”. For the same compound, the “PCK1-mScarlet fluorescence and luciferase activity” value in experiment [5] (100 ng/mL insulin for 3 hours after treatment with cAMP) is recorded as “downregulation; also recorded: decreased”. Also, the “luciferase activity of PCK1” value in experiment [5] (HLOs insulin-starved 24 hours, 10 nM, 100 nM or 1000 nM insulin for 1 hour) is “decreased”; in experiment [5] (insulin-starved HLOs, 100 nM insulin for 1, 2 or 3 hours) it was “reduced after 1 hour of treatment”. In addition, in experiment [5] (cAMP-treated HLOs, 100 nM insulin for 3 hours), the PCK1-luciferase activity result is on record as “inhibited”. Also, the glucose production result in experiment [6] (sHLO after insulin stimulation) is recorded as “not affected; also recorded: not inhibited”. For the same compound, in experiment [6] (sHLO insulin-starved 24 hours, then insulin stimulation), the “insulin response of PCK1 and other gluconeogenesis genes” value is reported as “not responsive”. The “phosphorylation of AKT” value in experiment [6] (sHLO insulin-starved 24 hours, 100 nM insulin for 20 minutes, Western blot) is on record as “inhibited in sHLO”.
With `CCCCCCCC/C=C\CCCCCCCC(=O)O` [oleic acid], the fat accumulation result in experiment [7] is “induces fat accumulation”.
